The results in this text go back to patent publication US20240018125A1, “CYCLIC ISOTHIOUREA DERIVATIVES AS CXCR4 MODULATORS” (ERMIUM THERAPEUTICS, priority 2020, published 2024).

Where a name gives a salt, the structure may show the parent alone. A value given as a limit tells only on which side of the number the result lay.

The test system of this test is peripheral blood mononuclear cells (PBMCs) from healthy donors. Briefly: IFN production by R848-activated PBMCs, quantified with twINNE luciferase reporter cell line. Type of test: cell-based, human. The note with it: Homo sapiens, PBMC; read-out: IC50 of anti-inflammatory activity (IFN production by activated PBMCs). As to the method: The blood from healthy donors was obtained from “Etablissement Français du Sang” (convention #19/EFS/029), Paris, France.
In vitro experiments were performed using human peripheral blood mononuclear cells (PBMCs) isolated by density centrifugation from peripheral blood leukocyte separation medium, lymphoprep (Stemcell Technologies).
PBMCs were cultured in RPMI 1640 (Sigma-Aldrich, MO, USA) containing 10% heat-inactivated fetal bovine serum (Sigma-Aldrich, MO, USA) at 37° C./5% CO2.
The PBMCs used herein were prepared as described in part A “immune cells preparation”, above. PBMCs were seeded at 4.10^6/mL. Cells were pre-treated with different concentration of examples according to the invention. Cells were then stimulated with the TLR7/8 agonist resiquimod—R848 (Sigma-Aldrich, MO, USA) at 5 μg/mL.
To quantify the secretion of functional IFN, a biological assay based on a stable cell line where luciferase reporter gene is controlled by five Interferon-Stimulated Response Elements (twINNE cell line) was used. First, supernatants of R848-stimulated PBMCs (see part B above) were harvested after 24 h of stimulation and frozen at −20° C. for storage. Then, supernatants were dispensed in culture wells of a 96-well plate containing 35.103 twINNE cells per well in Dulbecco's Modified Eagle's Medium supplemented with 10% Foetal Bovine Serum, 100 U/mL Penicillin and 100 μg/mL Streptomycin (1% Pen-Strep) and 1 mM glutamine (Sigma-Aldrich, MO, USA) at 37° C./5% CO2. After 24 h of culture, luciferase activity was determined by adding 60 μL of Bright-Glo reagents (Promega, Wisconsin, USA) to culture wells and measuring bioluminescence with EnSpire Multimode Plate Reader (PerkinElmer, Massachusetts, USA). When stated, for IC50 calculation, dose-response curves fitted using the nonlin fit (variable slope) analysis in GraphPad Prism software (GraphPad Software, Califronia, USA).
IFN production was quantified (as specified in Materials and Methods, part C “quantification of interferon secretion”) using twINNE reporter cell line.
On the technique in general: Reporter assays use an easily measured gene product as a stand-in for the process of interest.
As to `CC1CCCN1CCSC1=NCc2ccccc2N1` (centres unmarked) [Example 130, 2-((2-(2-methylpyrrolidin-1-yl)ethyl)thio)-1,4-dihydroquinazoline dihydrochloride], the IC50 – broadly, the concentration that inhibits the measured activity by half – is no more than 10 µM.

For `Clc1ccc2c(c1)CN1C(CSC3=NCCc4ccccc4N3)=CSC1=N2` [Example 76, 7-chloro-3-(((4,5-dihydro-1H-benzo[d][1,3]diazepin-2-yl)thio)methyl)-5H-thiazolo[2,3-b]quinazoline dihydrochloride], the IC50 fell in the range of 10 to 32 µM.

As for `CC1CCN(CCSC2=NCc3ccccc3N2)C1` (centres unmarked) [Example 138, 2-((2-(3-methylpyrrolidin-1-yl)ethyl)thio)-1,4-dihydroquinazoline dihydrochloride], the IC50 is no more than 10 µM.

`C1=C(CSC2=N[C@@H]3CCCC[C@H]3N2)N2Cc3ccccc3N=C2S1` [Example 32, 3-((((3aR,7aR)-3a,4,5,6,7,7a-hexahydro-1H-benzo[d]imidazol-2-yl)thio)methyl)-5H-thiazolo[2,3-b]quinazoline dihydrochloride]: the IC50 is no more than 10 µM.

As for `Cc1ccc(CC2CN3C(CSC4=NCc5ccccc5N4)=CSC3=N2)cc1` (centres unmarked) [Example 122, 3-(((1,4-dihydroquinazolin-2-yl)thio)methyl)-6-(4-methylbenzyl)-5,6-dihydroimidazo[2,1-b]thiazole dihydrochloride], the IC50 is no more than 10 µM.

For the molecule `C1CN=C(SCCCCN2CCCC2)NC1` [Example 173, 2-((4-(pyrrolidin-1-yl)butyl)thio)-1,4,5,6-tetrahydropyrimidine dihydrochloride], the IC50 was greater than 32 µM.

In the case of `Fc1cccc2c1CN=C(SCC1=CSC3=NCc4ccccc4CN13)N2` [Example 23, 3-(((5-fluoro-1,4-dihydroquinazolin-2-yl)thio)methyl)-5,10-dihydrobenzo[e]thiazolo[3,2-a][1,3]diazepine dihydrochloride], the half-inhibitory concentration (IC50) is no more than 10 µM.

Take `Clc1ccc2c(c1)CN1C(CSC3=NCCN3)=CSC1=N2` [Example 4, 7-chloro-3-(((4,5-dihydro-1H-imidazol-2-yl)thio)methyl)-5H-thiazolo[2,3-b]quinazoline dihydrochloride]: the IC50 is no more than 10 µM.

Take `Clc1ccc2c(c1)CN=C(SCC1=CSC3=Nc4ccccc4CN13)N2` [Example 39, 3-(((6-chloro-1,4-dihydroquinazolin-2-yl)thio)methyl)-5H-thiazolo[2,3-b]quinazoline dihydrochloride]: the 50% inhibitory concentration (IC50) is no more than 10 µM.

Turning to `CC(CSC1=NCc2ccccc2N1)N1CCCC1` (centres unmarked) [Example 129, 2-((2-(pyrrolidin-1-yl)propyl)thio)-1,4-dihydroquinazoline dihydrochloride], the IC50 was no more than 10 µM.

`FC1(F)CC12CCN(CCSC1=NCc3ccccc3N1)C2` (centres unmarked) [Example 132, 2-((2-(1,1-difluoro-5-azaspiro[2.4]heptan-5-yl)ethyl)thio)-3,4-dihydroquinazoline]: the IC50 is 10 to 32 µM.

For `Clc1ccc2c(c1)CN1C(CSC3=NCC(Cc4cccs4)N3)=CSC1=N2` (centres unmarked) [Example 64, 7-chloro-3-(((5-(thiophen-2-ylmethyl)-4,5-dihydro-1H-imidazol-2-yl)thio)methyl)-5H-thiazolo[2,3-b]quinazoline dihydrochloride], the IC50 was no more than 10 µM.

Turning to `C(CCN1CCCC1)CSC1=NCC2(CC2)N1` [Example 185, 5-((4-(pyrrolidin-1-yl)butyl)thio)-4,6-diazaspiro[2.4]hept-5-ene dihydrochloride], the half-maximal inhibitory concentration (IC50) was greater than 32 µM.

Regarding `COc1ccc(CC2(C)CN3C(CSC4=NCc5ccccc5N4)=CSC3=N2)cc1` (centres unmarked) [Example 46, 3-(((3,4-dihydroquinazolin-2-yl)thio)methyl)-6-(4-methoxybenzyl)-6-methyl-5,6-dihydroimidazo[2,1-b]thiazole dihydrochloride], the IC50 was no more than 10 µM.

Regarding `CC1(C)N=C(SCC2=CSC3=Nc4cccc(F)c4CN23)Nc2ccccc21` [Example 73, 3-(((4,4-dimethyl-1,4-dihydroquinazolin-2-yl)thio)methyl)-6-fluoro-5H-thiazolo[2,3-b]quinazoline dihydrochloride], the IC50 was greater than 32 µM.

For the molecule `CN1CCC(SC2=NCc3ccccc3N2)C1` (centres unmarked) [Example 100, 2-((1-methylpyrrolidin-3-yl)thio)-1,4-dihydroquinazoline dihydrochloride], the IC50 is no more than 10 µM.

For the molecule `CC1(C)N=C(SCC2=CSC3=Nc4ccc(Cl)cc4CN23)Nc2ccccc21` [Example 75, 7-chloro-3-(((4,4-dimethyl-1,4-dihydroquinazolin-2-yl)thio)methyl)-5H-thiazolo[2,3-b]quinazoline dihydrochloride], the IC50 was greater than 32 µM.

Take `c1ccc(N2CCC(SC3=NCc4ccccc4N3)C2)cc1` (centres unmarked) [Example 101, 2-((1-phenylpyrrolidin-3-yl)thio)-1,4-dihydroquinazoline hydrochloride]: the concentration for half-maximal inhibition (IC50) was in the range of 10 to 32 µM.

For the molecule `C1=C(CSC2=NCc3ccccc3N2)N2C[C@H](Cc3c[nH]c4ccccc34)N=C2S1` [Example 109, (S)-6-((1H-indol-3-yl)methyl)-3-(((1,4-dihydroquinazolin-2-yl)thio)methyl)-5,6-dihydroimidazo[2,1-b]thiazole dihydrochloride], the IC50 is no more than 10 µM.

As for `Clc1ccc2c(c1)CN1C(CSC3=NCc4cccc(Br)c4N3)=CSC1=N2` [Example 92, 3-(((8-bromo-1,4-dihydroquinazolin-2-yl)thio)methyl)-7-chloro-5H-thiazolo[2,3-b]quinazoline dihydrochloride], the IC50 was no more than 10 µM.

Turning to `CCCCN1Cc2ccccc2N=C1SCC1=CSC2=NC(Cc3ccccc3)CN12` (centres unmarked) [Example 93, 6-benzyl-3-(((3-butyl-3,4-dihydroquinazolin-2-yl)thio)methyl)-5,6-dihydroimidazo[2,1-b]thiazole dihydrochloride], the IC50 is no more than 10 µM.

Take `c1ccc2c(c1)CN=C(SC1CCCC[C@H]1N1CCCC1)N2` (stereo partly drawn) [Example 148, 2-(((2R)-2-(pyrrolidin-1-yl)cyclohexyl)thio)-1,4-dihydroquinazoline dihydrochloride]: the half-maximal inhibitory concentration (IC50) was no more than 10 µM.

For the molecule `CCCCC1CN=C(SCC2=CSC3=Nc4ccccc4CN23)N1` (centres unmarked) [Example 29, 3-(((5-butyl-4,5-dihydro-1H-imidazol-2-yl)thio)methyl)-5H-thiazolo[2,3-b]quinazoline dihydrochloride], the IC50 is no more than 10 µM.

Turning to `COc1ccc(CC2(C)CN=C(SCC3=CSC4=NCc5ccccc5CN34)N2)cc1` (centres unmarked) [Example 34, 3-(((5-(4-methoxybenzyl)-5-methyl-4,5-dihydro-1H-imidazol-2-yl)thio)methyl)-5,10-dihydrobenzo[e]thiazolo[3,2-a][1,3]diazepine dihydrochloride], the IC50 was no more than 10 µM.

With `c1ccc2c(c1)CN=C(SCCCN1CCCC1)NC2` [Example 194, 3-((3-(pyrrolidin-1-yl)propyl)thio)-2,5-dihydro-1H-benzo[e][1,3]diazepine dihydrochloride], the IC50 was greater than 32 µM.

As for `Fc1cccc2c1CN1C(CSC3=NCc4ccccc4N3)=CSC1=N2` [Example 18, 3-(((3,4-dihydroquinazolin-2-yl)thio)methyl)-6-fluoro-5H-thiazolo[2,3-b]quinazoline dihydrochloride], the IC50 was no more than 10 µM.

In the case of `c1ccc2c(c1)CCN=C(SCCCN1CCCC1)N2` [Example 190, 2-((3-(pyrrolidin-1-yl)propyl)thio)-4,5-dihydro-3H-benzo[d][1,3]diazepine dihydrochloride], the IC50 is 10 to 32 µM.

Turning to `Clc1ccc2c(c1)CN1C(=N2)SC(Br)=C1CSC1=NCc2ccccc2N1` [Example 79, 2-bromo-7-chloro-3-(((1,4-dihydroquinazolin-2-yl)thio)methyl)-5H-thiazolo[2,3-b]quinazoline dihydrochloride], the IC50 is no more than 10 µM.

On to `Clc1ccc2c(c1)CN=C(SCC1=CSC3=NCCN13)N2` [Example 10, 3-(((6-chloro-1,4-dihydroquinazolin-2-yl)thio)methyl)-5,6-dihydroimidazo[2,1-b]thiazole dihydrochloride], for which the IC50 is no more than 10 µM.

In the case of `CC(CCCSC1=NCc2ccccc2N1)N1CCCC1` (centres unmarked) [Example 165, 2-((4-(pyrrolidin-1-yl)pentyl)thio)-1,4-dihydroquinazoline dihydrochloride], the IC50 lay in the range of 10 to 32 µM.

Take `CC1(C)CN2C(CSC3=NCc4ccccc4N3)=CSC2=N1` [Example 3, 3-(((3,4-dihydroquinazolin-2-yl)thio)methyl)-6,6-dimethyl-5,6-dihydroimidazo[2,1-b]thiazole dihydrochloride]: the IC50 is no more than 10 µM.

As to `Clc1ccc2c(c1)CN1C(CSC3=N[C@@H]4CCCC[C@H]4N3)=CSC1=N2` [Example 40, 7-chloro-3-((((3aR,7aR)-3a,4,5,6,7,7a-hexahydro-1H-benzo[d]imidazol-2-yl)thio)methyl)-5H-thiazolo[2,3-b]quinazoline dihydrochloride], the IC50 is no more than 10 µM.
